Experimental findings from US7973219B2, “Method for producing transgenic plants resistant to weed control compounds which disrupt the porphyrin pathways of plants” (Sumitomo Chemical Company, Limited, priority 1998, dated 2011) are described below.

Assay [1] relates to E. coli BT3/pACYCSP+pRASSL8 strain. The assay is described as follows: Growth of E. coli BT3/pACYCSP+pRASSL8 with herbicidal compound. The settings on record: 1 ppm, 18 hours culture, Table 16. The class given is cell-based, Escherichia coli. The text has this:
According to the description of Gibson, L. C. D. et al., Proc. Natl. Acad. Sci. USA, 92; p 1941 (1995), the DNA fragment containing bchH gene prepared in Example 1 was digested with the restriction enzymes NdeI and BglII. The resultant DNA fragment was inserted between NdeI restriction site and BamHI restriction site of expression vector pET11a (manufactured by Stratagene) to obtain plasmid pETBCH (FIG. 1). This plasmid pETBCH was introduced into E. coli BL21(DE3) strain competent cells (manufactured by Stratagene) according to the manual attached to the competent cells to obtain E. coli BL21(DE3)/pETBCH strain. […] When the absorbance at 600 nm of the liquid culture medium became about 0.6, isopropyl β-D-thiogalactopyranoside (IPTG) was added to the liquid culture medium so that the final concentration was 0.4 mM, and the culture was continued for about additional 20 hours. […]
These E. coli strains were inoculated into YPT medium containing 1 ppm of the PPO inhibitory-type herbicidal compound represented by Structure 8, 100 μg/ml ampicillin, 15 μg/ml chloramphenicol, 10 μg/ml kanamycin, 10 μg/ml hemin and 50 μg/ml aminolevulinic acid, cultured under dark conditions or light conditions according to the same manner as in Example 2. Then, 18 hours after initiation of culture, the absorbance of the liquid culture medium was measured at 600 nm. […]

Assay [2] concerns tobacco bearing the introduced Arabidopsis thaliana PPO(A220V) gene. The assay is described as follows: Leaf piece chlorophyll test, tobacco with Arabidopsis thaliana PPO(A220V) gene. Type of assay: in vivo. The settings on record: 2.0 ppm, 7 days in a light place, treated vs untreated leaf pieces, Example 37. From the text: Tobacco leaf pieces cultured sterilely were infected with the Agrobacterium strain and, according to the same manner as described in Example 5, tobacco bearing the introduced Arabidopsis thaliana PPO(A220V) gene was obtained.
Leaves of the tobacco bearing the introduced both Arabidopsis thaliana PPO(A220V) gene and gene encoding the variant tobacco chelatase subunit produced in Example 36, those bearing the introduced Arabidopsis thaliana PPO(A220V) gene produced in Example 35, and the control recombinant tobacco leaves produced in Example 5were collected, and each leaf was divided into the right and left equivalent pieces along the main vein. One of the pieces was treated with an aqueous solution containing 2.0 ppm PPO inhibitory-type herbicidal compound of Structure 8, while the other piece was not treated with the compound. These leaf pieces were placed on MS medium containing 0.8% agar and allowed to stand at room temperature for 7 days in a light place. Then, each leaf piece was ground in 5 ml of 80% aqueous acetone solution in a mortar with a pestle to extract chlorophyll. The extract was diluted 10 times with 80% aqueous acetone solution and the absorbance was measured at 750 nm, 663 nm and 645 nm to calculate the total chlorophyll content according to the method described by Macknney G., J. Biol. Chem. (1941) 140, p 315. […]

Take `C#CCOc1cc(N2C(=O)C3=C(CCCC3)C2=O)c(F)cc1Cl` [Structure 8]: the Relative absorbance in assay [1] (in the dark) worked out at 1.0; in assay [1] (in the light), 0.79. This compound also had a resistant level in assay [2] of 12.2%.
